Here are results for three molecules from paper PMC11435438, “Cyclin-Dependent Kinase 8 Represents a Positive Regulator of Cytomegalovirus Replication and a Novel Host Target for Antiviral Strategies” (Pharmaceutics, 2024).

The subject of one series is HCMV Merlin-GFP. Description: HCMV Merlin-GFP replication assay in HFFs. It is filed as cell-based, human cytomegalovirus. The note with it: Human betaherpesvirus 5, HFF, read-out: EC50 Merlin-GFP. How it is done:
(§1) (i.e., 1 × TCID25/7d). Immediately after virus adsorption, the cells were treated with antiviral compounds or solvent control (DMSO). Infections were performed in biological quadruplicates, or as indicated for individual experiments. The cells were fixed by the addition of 150 µL 10% formalin/well 7 d p.i. (Merlin-GFP 14 d p.i.), and washed with PBS. For GFP or YFP quantitation, the Victor X4 microplate reader (PerkinElmer, Waltham, MA, USA) was primarily used, or as a very sensitive alternative, the ImageXpress® Pico device (Molecular Devices LLC, San Jose, CA, USA). Mean EC50 values of antiviral efficacy were calculated on the basis of three experimental replicates or as indicated (measurement of fluorescence values in quadruplicate), and percentage values were provided relative to the solvent control (DMSO).

The test system of another series is HCMV AD169-GFP. Description: HCMV AD169-GFP replication assay in U373 cells. It is filed as cell-based, human cytomegalovirus. The following applies: Human betaherpesvirus 5, AD169, U373 MG, read-out: EC50 AD169-GFP. How it is done: as §1
Series [1] in a line: Neutral Red uptake cell viability assay in mock-infected U373 cells. It is filed as cell-based. The following applies: human, read-out: CC50 Mock-inf. How it is done:
To address cell viability after compound treatment, a NR uptake assay was performed. Uninfected cells were seeded at equal numbers as for antiviral replication assays and treated with compounds or solvent control. The treatment was performed for HFFs (7 d), U373 (14 d), A549 (3 d), J-Jhan (14 d), and non-dox-induced iSLK.219 cells (3 d). At the end of the treatment period, 40 µg/mL of Neutral Red (NR) was added and incubated for 2–4 h at 37 °C, before the NR-containing supernatant was removed. Cells were destained using a solution containing 50% ethanol, 1% acetic acid, and 49% water. NR fluorescence was quantified using the Victor X4 microplate reader (PerkinElmer, Waltham, MA, USA) (560/630 nm). For the AB cell viability assay, which was also used to quantify virus-induced cytopathogenicity (particularly in the case of GPCMV in GPEFs), cells were seeded at equal numbers as for antiviral replication assays and incubated with a medium containing 25 ng/mL AB (resazurin; Ann Arbor, MI, USA), incubated for 6 h at 37 °C, and used for measurement identical with NR.

For another series, the system named is VZV Oka-GFP. Description: VZV replication assay in HFFs. The class given is cell-based, varicella zoster virus. The note with it: Human alphaherpesvirus 3, read-out: EC50 VZV. How it is done:
(§2) Primary human foreskin fibroblasts (HFFs; obtained from clinical samples at Children’s Hospital in Erlangen, Germany), guinea pig embryonic fibroblasts (GPEFs; generously provided by Mark R. Schleiss from the University of Minnesota in Minneapolis, MN, USA), and rat embryonic fibroblasts were cultivated in Eagle’s Minimal Essential Medium (MEM) supplemented with 1 × GlutaMAX™ (both from Thermo Fisher Scientific, Waltham, MA, USA), 10 µg/mL gentamicin, and 10% fetal bovine serum (FBS; Capricorn, Ebsdorfergrund, Germany). Human glioblastoma–astrocytoma cell line (U373) and mouse embryonic fibroblasts (MEFs), both obtained from ATCC (Manassas, VA, USA), and Vero cell sublineage 76 [26], were cultivated in Dulbecco’s modified Eagle’s medium (DMEM) supplemented with 1 × GlutaMAX™, 10 µg/mL gentamicin, and 10% fetal bovine serum. All cultured cells were maintained under the conditions of 37 °C temperature, 5% CO2, and 80% humidity. The regular monitoring for the absence of mycoplasma contamination was conducted using Lonza™ Mycoalert™ (Thermo Fisher Scientific, Waltham, MA, USA). Cultured cell-based viral replication assays were performed by the use of the HCMV strain AD169 (variant U.K.), the recombinant HCMVs AD169-GFP expressing green fluorescent protein [27], TB40 IE2-YFP and TB40-FLuc expressing an IE2-YFP fusion protein or firefly luciferase (FLuc), and Merlin-GFP [31]. […]
(§3) A variety of antiherpesviral and non-herpesviral drug activities were assessed by the cell culture-based viral replication systems, as described elsewhere. […] After incubation at 37 °C for 3 days, iSLK.219 cells were fixed with 10% formalin, washed with PBS, and used for a quantitation of RFP reporter signal by PicoMD counting (ImageXpress® Pico device, Molecular Devices LLC, San Jose, CA, USA). […]

The next series relates to MHV-68-Luc. Kind of series: MHV-68 replication assay in Vero cells. The class given is cell-based, murine herpesvirus 68. The note with it: Murine herpesvirus, read-out: EC50 MHV-68. How it is done: as §2, §3
The mark [2] stands for this setting: mock-infected (uninfected) U373 cells.

Like-named read-outs stand apart in the source and are kept apart here.

Turning to `CN(C)C(=O)Cn1cc(-c2ccc(-c3cncc4ccccc34)cc2)cn1` [BI-1347], the EC50 (in general, the concentration giving half of the maximal effect) is 0.00054 ± 0.00099 µM in the series with HCMV Merlin-GFP, 0.0108 ± 0.00573 µM with HCMV AD169-GFP, 26 ± 10 µM in the series on VZV Oka-GFP and 0.0008 ± 0.001 µM with MHV-68-Luc. In series [1] (setting [2]), the CC50 (as a rule, the concentration that lowers cell viability or growth by half) at 14 d is above 100 µM.
Regarding `Cn1ncc2cc(-c3cnc(N)c(Cl)c3N3CCC4(CCNC4=O)CC3)ccc21` [CCT-151921], the EC50 in the series with HCMV Merlin-GFP amounted to 0.00127 ± 0.00117 µM; in the series with HCMV AD169-GFP, 0.0163 ± 0.00713 µM; in the series on VZV Oka-GFP, 28 ± 9 µM; in the series with MHV-68-Luc, 0.022 ± 0.019 µM. For the same molecule, the CC50 at 14 d in series [1] (U373) is above 100 µM.
For `Cc1n[nH]c2ncc(C(=O)N3CCC[C@H]3c3ccc(Cl)cc3)cc12` [MSC-2530818], the EC50 in the series on HCMV Merlin-GFP was 0.00555 ± 0.00563 µM; in the series on HCMV AD169-GFP it was 0.0185 ± 0.0112 µM; with VZV Oka-GFP, above 50 µM; in the series on MHV-68-Luc, 0.0025 ± 0.003 µM. The 50% cytotoxic concentration (CC50) at 14 d in series [1] (setting [2]) is 87 ± 6 µM.
